Entries after “also recorded” stand apart in the source; their conditions may differ.
What was measured:
166 GPCRs = experiment: Functional GPCR agonist and antagonist screen, whole panel; format: cell-based; settings: agonist 12 500 nM, antagonist 10 000 nM
Chemical stability = format: physicochemical; settings: pH 1–13, 24 h, 37 °C
C57BL/6 mice = experiment: Modified SHIRPA adverse pharmacology screen; format: in vivo; settings: 50 and 150 mg/kg, 24 h observation
in vivo = settings: male, Sprague-Dawley, rat, 5 mg/kg
in vitro = settings: rat, liver microsomes, pH 7.4
P-gp = experiment: in vitro; settings: human, Caco-2
BCRP = experiment: in vitro; settings: dog
[1] = system: Salmonella typhimurium TA98 and TA100; experiment: Ames bacterial reverse mutation assay; settings: ± metabolic activation, up to 5 μg/plate
MAO-A = biological target: T1, MAO-A (Homo sapiens, UniProt P21397); experiment: Monoamine oxidase inhibition; settings: 0.01–25 μM
T1 sequence (P21397 1-527): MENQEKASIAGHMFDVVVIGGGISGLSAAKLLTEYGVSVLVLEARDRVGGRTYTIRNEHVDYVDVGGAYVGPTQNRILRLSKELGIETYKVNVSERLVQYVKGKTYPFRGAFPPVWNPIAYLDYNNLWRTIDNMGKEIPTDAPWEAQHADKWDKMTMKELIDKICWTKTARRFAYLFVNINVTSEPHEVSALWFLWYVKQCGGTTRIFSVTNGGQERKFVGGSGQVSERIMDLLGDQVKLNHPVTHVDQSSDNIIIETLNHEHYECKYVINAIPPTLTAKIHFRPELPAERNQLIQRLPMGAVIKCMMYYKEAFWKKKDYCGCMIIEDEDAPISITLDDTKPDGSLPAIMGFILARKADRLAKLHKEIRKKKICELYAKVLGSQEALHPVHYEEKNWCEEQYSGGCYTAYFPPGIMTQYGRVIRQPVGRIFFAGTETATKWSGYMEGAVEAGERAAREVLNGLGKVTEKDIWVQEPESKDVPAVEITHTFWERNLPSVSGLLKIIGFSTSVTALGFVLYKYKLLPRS

MAO-B = biological target: T2, MAO-B (Homo sapiens, UniProt P27338); experiment: Monoamine oxidase inhibition; settings: 0.01–25 μM
T2 sequence (P27338 1-520): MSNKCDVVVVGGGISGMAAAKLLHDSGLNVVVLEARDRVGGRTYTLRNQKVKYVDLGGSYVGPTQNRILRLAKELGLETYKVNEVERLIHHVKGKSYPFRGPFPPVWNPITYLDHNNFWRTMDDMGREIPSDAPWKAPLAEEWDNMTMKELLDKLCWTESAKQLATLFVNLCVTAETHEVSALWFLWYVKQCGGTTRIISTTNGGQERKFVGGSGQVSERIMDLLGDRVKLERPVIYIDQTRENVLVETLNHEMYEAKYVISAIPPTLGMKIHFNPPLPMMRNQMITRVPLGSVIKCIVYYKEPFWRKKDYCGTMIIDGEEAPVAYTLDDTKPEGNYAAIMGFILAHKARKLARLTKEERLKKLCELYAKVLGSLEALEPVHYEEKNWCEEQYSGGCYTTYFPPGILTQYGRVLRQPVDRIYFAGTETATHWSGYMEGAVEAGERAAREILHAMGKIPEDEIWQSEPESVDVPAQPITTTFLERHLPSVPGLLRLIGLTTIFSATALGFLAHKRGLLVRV

Caco-2 / P-gp = experiment: Caco-2 two-way permeability / P-gp substrate; settings: Caco-2, second of two values given 'respectively'
MDCK / BCRP = experiment: BCRP-MDCK two-way permeability / BCRP substrate
[2] = system: APP/PS1 transgenic (Tg) mouse; experiment: Behavior in APP/PS1 transgenic mice, preventative paradigm
[3] = 2.5 mg/kg, oral, daily, 8 weeks to 3–4 months of age

**Q.** For `CN1CCN(c2cc(-c3ccncc3)c(-c3ccc4ccccc4c3)nn2)CC1` [MW150, 6-(4-Methylpiperazin-1-yl)-3-(naphthalen-2-yl)-4-(pyridin-4-yl)pyridazine], which “functional GPCR off-target activity” value (166 GPCRs) is on record?
**A.** The value was “no agonist or antagonist activity; also recorded: negative”.

**Q.** And the chemical stability (Chemical stability)?
**A.** Its chemical stability is “chemically stable; also recorded: stable at pH (1–13), 24 h, 37 °C”.

**Q.** And the “adverse pharmacology, clinical observation” value (C57BL/6 mice)?
**A.** The value was “no differences or adverse events were detected”.

**Q.** And the half-life (in vivo)?
**A.** The half-life was over 180 min.

**Q.** And the half-life at 1 μM (in vitro)?
**A.** Its half-life at 1 μM is 43 ± 4 min.

**Q.** What about the microsomal CLint at 1 μM (in vitro) of the same compound?
**A.** The microsomal CLint at 1 μM was 20 µL/min/mg.

**Q.** What about the Papp A→B at 2 h, 5 μM (P-gp) of the same compound?
**A.** The Papp A→B at 2 h, 5 μM was 33.5 ×10⁻⁶ cm/s.

**Q.** What about the Papp B→A at 2 h, 5 μM (P-gp) of the same compound?
**A.** The Papp B→A at 2 h, 5 μM was 31.2 ×10⁻⁶ cm/s.

**Q.** What about the recovery (P-gp) of the same compound?
**A.** The recovery was 71%.

**Q.** What about the Papp A→B at 2 h, 5 μM (BCRP) of the same compound?
**A.** Its Papp A→B at 2 h, 5 μM is 20.7 ×10⁻⁶ cm/s.

**Q.** And the Papp B→A at 2 h, 5 μM (BCRP)?
**A.** The Papp B→A at 2 h, 5 μM was 25.1 ×10⁻⁶ cm/s.

**Q.** And the recovery (BCRP)?
**A.** The recovery was 66%.

**Q.** And the AMES test [1]?
**A.** The AMES test was “negative”.

**Q.** What about the MAO-A inhibition (MAO-A) of the same compound?
**A.** Its MAO-A inhibition is “negative”.

**Q.** And the MAO-B inhibition (MAO-B)?
**A.** The MAO-B inhibition was “negative”.

**Q.** What about the “percent recovery, second value” (Caco-2 / P-gp) of the same compound?
**A.** Its value is 61%.

**Q.** What about the MDCK permeability classification (MDCK / BCRP) of the same compound?
**A.** Its MDCK permeability classification is “high cell permeability; also recorded: highly permeable”.

**Q.** What about the “percent recovery, second value” (MDCK / BCRP; MDCK, second of two values given 'respectively') of the same compound?
**A.** The value was 67%.

**Q.** What about the BCRP substrate status (MDCK / BCRP; effect of 10 μM Ko143 on bidirectional flux) of the same compound?
**A.** The BCRP substrate status was “not a substrate; also recorded: not BCRP substrate”.

**Q.** What about the “RAWM (spatial memory)” value [2, 3] of the same compound?
**A.** The value was “improved; also recorded: suppression of the deficits”.

**Q.** What about the “contextual fear memory (associative memory)” value [2, 3] of the same compound?
**A.** Its value is “improved; also recorded: suppression of the deficits”.

**Q.** And the “dose dependence of behavior end points” value ([2]; Figure S2)?
**A.** Its value is “dose dependent”.

**Q.** And the “performance of WT mice” value ([2]; WT littermates, 2.5 mg/kg oral daily)?
**A.** Its value is “did not affect”.

**Q.** What about the sensory threshold ([2]; control behavior) of the same compound?
**A.** Its sensory threshold is “No difference”.

**Q.** And the visible platform task ([2]; control behavior)?
**A.** The visible platform task was “did not influence; also recorded: No difference”.

**Q.** And the cued fear memory ([2]; control behavior, hippocampus-independent)?
**A.** The cued fear memory was “no effect; also recorded: No difference”.

**Q.** And the open field tests ([2]; control behavior, locomotor activity and anxiety)?
**A.** The open field tests was “did not influence; also recorded: No difference”.
